Data: the supplement of paper PMC10733146

Experiments:
Assay in all cases: viability relative to DMSO control (fraction); higher = less drug effect (more viable cells)
Conditions in all cases: 48 h
[1] = test system: primary ALL patient cells (S048)
Method in brief: (§1)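 Cells were incubated for 48 h at 37 °C and 5% CO2 in RPMI-1640 with penicillin/streptomycin, L-glutamine and human serum, at 4 × 10^4 cells per well in 384-well plates with compounds pre-plated at five concentrations, one well each. These were primary mononuclear tumour cells, fresh or cryopreserved, Ficoll-isolated from blood or bone marrow or obtained from processed lymph node. Viability values are CellTiter-Glo luminescence relative to the median of 16 inner DMSO wells.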

[2] = test system: primary ALL patient cells (S088)
Method in brief: as §1

[3] = test system: primary AML patient cells (S006)
Method in brief: as §1

[4] = test system: primary AML patient cells (S007)
Method in brief: as §1

[5] = test system: primary AML patient cells (S056)
Method in brief: as §1

[6] = test system: primary AML patient cells (S060)
Method in brief: as §1

[7] = test system: primary AML patient cells (S071)
Method in brief: as §1

[8] = test system: primary AML patient cells (S072)
Method in brief: as §1

[9] = test system: primary AML patient cells (S079)
Method in brief: as §1

[10] = test system: primary AML patient cells (S089)
Method in brief: as §1

[11] = test system: primary CLL patient cells (S031)
Method in brief: as §1

[12] = test system: primary CLL patient cells (S043)
Method in brief: as §1

[13] = test system: primary DLBCL patient cells (S049)
Method in brief: as §1

[14] = test system: primary DLBCL patient cells (S076)
Method in brief: as §1

[15] = test system: primary DLBCL patient cells (S082)
Method in brief: as §1

[16] = test system: primary MCL patient cells (S063)
Method in brief: as §1

[17] = test system: primary T-NHL patient cells (S058)
Method in brief: as §1

Cc1cc(Nc2ncc(Cl)c(Nc3ccccc3S(=O)(=O)C(C)C)n2)c(OC(C)C)cc1C1CCNCC1 [Ceritinib]
viability ([1]; 0.024 µM): 0.855
viability ([1]; 0.12 µM): 0.83
viability ([1]; 0.6 µM): 0.634
viability ([1]; 3 µM): 0.505
viability ([1]; 15 µM): 0.0153
viability ([2]; 0.024 µM): 0.923
viability ([2]; 0.12 µM): 0.788
viability ([2]; 0.6 µM): 0.558
viability ([2]; 3 µM): 0.35
viability ([2]; 15 µM): 0.0155
viability ([3]; 0.024 µM): 0.938
viability ([3]; 0.12 µM): 0.924
viability ([3]; 0.6 µM): 0.773
viability ([3]; 3 µM): 0.53
viability ([3]; 15 µM): 0.0233
viability ([4]; 0.024 µM): 0.837
viability ([4]; 0.12 µM): 0.718
viability ([4]; 0.6 µM): 0.559
viability ([4]; 3 µM): 0.173
viability ([4]; 15 µM): 0.0192
viability ([5]; 0.024 µM): 0.954
viability ([5]; 0.12 µM): 1.41
viability ([5]; 0.6 µM): 0.654
viability ([5]; 3 µM): 0.375
viability ([5]; 15 µM): 0.0154
viability ([6]; 0.024 µM): 1
viability ([6]; 0.12 µM): 0.981
viability ([6]; 0.6 µM): 1.03
viability ([6]; 3 µM): 0.947
viability ([6]; 15 µM): 0.0203
viability ([7]; 0.024 µM): 0.865
viability ([7]; 0.12 µM): 0.781
viability ([7]; 0.6 µM): 0.476
viability ([7]; 3 µM): 0.174
viability ([7]; 15 µM): 0.0165
viability ([8]; 0.024 µM): 0.954
viability ([8]; 0.12 µM): 0.939
viability ([8]; 0.6 µM): 0.79
viability ([8]; 3 µM): 0.582
viability ([8]; 15 µM): 0.0168
viability ([9]; 0.024 µM): 0.964
viability ([9]; 0.12 µM): 0.933
viability ([9]; 0.6 µM): 0.844
viability ([9]; 3 µM): 0.738
viability ([9]; 15 µM): 0.0169
viability ([10]; 0.024 µM): 0.974
viability ([10]; 0.12 µM): 0.866
viability ([10]; 0.6 µM): 0.562
viability ([10]; 3 µM): 0.393
viability ([10]; 15 µM): 0.0151
viability ([11]; 0.024 µM): 1
viability ([11]; 0.12 µM): 0.899
viability ([11]; 0.6 µM): 0.838
viability ([11]; 3 µM): 0.628
viability ([11]; 15 µM): 0.018
viability ([12]; 0.024 µM): 1.05
viability ([12]; 0.12 µM): 0.943
viability ([12]; 0.6 µM): 0.928
viability ([12]; 3 µM): 0.684
viability ([12]; 15 µM): 0.0198
viability ([13]; 0.024 µM): 0.897
viability ([13]; 0.12 µM): 0.84
viability ([13]; 0.6 µM): 0.771
viability ([13]; 3 µM): 0.4
viability ([13]; 15 µM): 0.0197
viability ([14]; 0.024 µM): 1.02
viability ([14]; 0.12 µM): 0.996
viability ([14]; 0.6 µM): 0.964
viability ([14]; 3 µM): 0.721
viability ([14]; 15 µM): 0.0181
viability ([15]; 0.024 µM): 1.05
viability ([15]; 0.12 µM): 1.04
viability ([15]; 0.6 µM): 0.617
viability ([15]; 3 µM): 0.321
viability ([15]; 15 µM): 0.0186
viability ([16]; 0.024 µM): 0.967
viability ([16]; 0.12 µM): 0.946
viability ([16]; 0.6 µM): 0.957
viability ([16]; 3 µM): 0.892
viability ([16]; 15 µM): 0.0187
viability ([17]; 0.024 µM): 1.03
viability ([17]; 0.12 µM): 0.924
viability ([17]; 0.6 µM): 0.961
viability ([17]; 3 µM): 0.626
viability ([17]; 15 µM): 0.023
